Numbering of substitutions follows the chain as printed. Where a SMILES comes first, the peptide text is derived from it. Bridges are numbered along the chain shown (N, C = ends).
Legend:
Experiment in all cases: Heterologous whole cell competition binding
Conditions in all cases: heterologous competition of 125I-sCT(8-32), whole cells, mean ± S.E.M., SEM
hCTR V293A = biological target: T1, hCTR V293A (Homo sapiens, UniProt P30988, V293A)
T1 construct: c-Myc (N); expressed in transfected cells
T1 sequence (P30988 25-474 V293A): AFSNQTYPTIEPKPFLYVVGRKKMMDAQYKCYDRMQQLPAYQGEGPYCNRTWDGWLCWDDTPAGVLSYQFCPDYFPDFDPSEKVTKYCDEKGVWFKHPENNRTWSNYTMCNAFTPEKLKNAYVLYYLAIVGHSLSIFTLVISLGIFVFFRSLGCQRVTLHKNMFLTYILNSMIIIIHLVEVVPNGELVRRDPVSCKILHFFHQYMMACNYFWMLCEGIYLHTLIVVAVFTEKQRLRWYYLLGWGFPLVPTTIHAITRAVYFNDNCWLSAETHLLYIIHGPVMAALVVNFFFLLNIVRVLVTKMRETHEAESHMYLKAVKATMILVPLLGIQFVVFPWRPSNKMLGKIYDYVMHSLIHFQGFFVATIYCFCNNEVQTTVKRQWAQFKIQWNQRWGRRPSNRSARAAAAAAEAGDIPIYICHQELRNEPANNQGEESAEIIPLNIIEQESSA
Outline: (§1)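 Intact cells carrying the mutant calcitonin receptor are co-incubated overnight with labelled tracer and unlabelled competitor. Non-bound ligand is then washed away and retained radioactivity measured by gamma counting; competition data are converted to pKi using Cheng-Prusoff.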

hCTR L368A = biological target: T2, hCTR L368A (Homo sapiens, UniProt P30988, L368A)
T2 construct: c-Myc (N); expressed in transfected cells
T2 sequence (P30988 25-474 L368A): T1 sequence (P30988 25-474 V293A) with A269V, L344A
Outline: as §1

hCTR E294A = biological target: T3, hCTR E294A (Homo sapiens, UniProt P30988, E294A)
T3 construct: c-Myc (N); expressed in transfected cells
T3 sequence (P30988 25-474 E294A): T1 sequence (P30988 25-474 V293A) with A269V, E270A
Outline: as §1

hCTR L291A = biological target: T4, hCTR L291A (Homo sapiens, UniProt P30988, L291A)
T4 construct: expressed in transfected cells
T4 sequence (P30988 25-474 L291A): T1 sequence (P30988 25-474 V293A) with L267A, A269V
Outline: as §1

hCTR D373A = biological target: T5, hCTR D373A (Homo sapiens, UniProt P30988, D373A)
T5 construct: c-Myc (N); expressed in transfected cells
T5 sequence (P30988 25-474 D373A): T1 sequence (P30988 25-474 V293A) with A269V, D349A
Outline: as §1

- Ki (hCTR V293A): 14.1 nM
- Ki (hCTR L368A): 8.51 nM
- Ki (hCTR E294A): 11.7 nM
- Ki (hCTR L291A): 67.6 nM
- Ki (hCTR D373A): 17.4 nM
Compound: CSCC[C@H](NC(=O)CNC(=O)[C@H](CO)NC(=O)[C@H](Cc1ccccc1)NC(=O)[C@H](CCCNC(=N)N)NC(=O)[C@H](Cc1c[nH]cn1)NC(=O)[C@H](Cc1ccccc1)NC(=O)[C@H](CC(N)=O)NC(=O)[C@H](CC(N)=O)NC(=O)[C@H](CC(C)C)NC(=O)[C@H](CC(N)=O)NC(=O)[C@H](CCCNC(=N)N)NC(=O)[C@H](Cc1c[nH]c2ccccc12)NC(=O)[C@H](Cc1ccc(O)cc1)NC(=O)[C@H](C)NC(=O)[C@H](CO)NC(=O)[C@H](CC(C)C)NC(=O)[C@@H](NC(=O)[C@@H]1CSSC[C@H](N)C(=O)N[C@@H](CO)C(=O)N[C@@H](CC(N)=O)C(=O)N[C@@H](CC(C)C)C(=O)N[C@@H](CO)C(=O)N[C@@H]([C@@H](C)O)C(=O)N1)C(C)C)C(=O)NCC(=O)N[C@@H](Cc1ccccc1)C(=O)NCC(=O)N1CCC[C@H]1C(=O)N[C@@H](CCC(=O)O)C(=O)N[C@H](C(=O)N1CCC[C@H]1C(N)=O)[C@@H](C)O [pCT] (H-CSNLSTCVLSAYWRNLNNFHRFSGMGFGPETP-NH2; disulfide 1-7)

Source: article PMC5908784, “Extracellular loops 2 and 3 of the calcitonin receptor selectively modify agonist binding and efficacy” (Biochemical Pharmacology, 2018)
